Compound | melting point
COc1cccc(-c2ccnc3c(C#N)cnn23)c1 | 165 to 166 °C
O=C(O)COc1c(-c2cccc(C(F)(F)F)c2)cc(C(=O)NCCCCCCc2ccccc2)cc1-c1cccc(C(F)(F)F)c1 | 166 to 169 °C
O=C(OCCc1ccccn1)Oc1ccc([N+](=O)[O-])cc1 | 125 to 127 °C
OC(c1ccccc1)(c1ccccn1)C1CCN(Cc2ccccc2)CC1 (stereo not given) | 142 to 143 °C
COC(=O)c1nc(-c2ccc(Cl)c(OC)c2F)nc(N)c1Br | 173 to 175 °C
CCOc1cc(OCC)c2c(=O)c(OCC)c(-c3ccccc3)oc2c1 | 111 to 114 °C
COc1ccc2sc(=O)n(C(C)=O)c2c1 | 112 to 113 °C
N#Cc1cccc(N2Cc3ccccc3CN(C3CCNCC3)C2=O)c1 | 116 °C
CCC1(CC(=O)O)OCCc2nc(-c3ccccc3)sc21 (stereo not given) | 106 to 108 °C
CCOc1ccc2[nH]c(=O)n(C34CC5CC(CC(C5)C3)C4)c2c1 | 146 °C
Cc1oc(C=Cc2ccccc2Cl)nc1C(=O)O | 223 to 224 °C
COc1c(NC(=O)c2ccc(C)c(-n3cc(C(=O)Cl)nn3)c2)cc(C(C)(C)C)cc1NS(C)(=O)=O | 205 to 207 °C
Cc1cnc2ccc(NC3=NCCN3)c(Br)c2n1 | > 260 °C
CCOc1nn(-c2ccccn2)cc1CCCOc1cc(CCC(=O)O)n(-c2ccccc2)n1 | 156 to 157 °C
Cc1ccc(C2CC(N)=NN2c2nc3ccccc3s2)cc1 (stereo not given) | 282 to 285 °C
Brc1ccc(-c2ccncc2)cc1 | 123 to 124 °C
Nc1nc(Nc2ccc(S(N)(=O)=O)cc2)sc1C(=O)c1ccc(C(=O)Oc2ccccc2)cc1 | > 300 °C
C=CCN(c1ncnc2c1ncn2CCCCCCCCC(=O)O)C1CCCCC1 | 100 to 102 °C
COC(=O)c1ccccc1-c1ccc(CNc2nc(Cl)nc3ccsc23)cc1 | 177 to 182 °C
CCN(CC)C(=O)Cc1c(N)n[nH]c1-c1ccc(OC)cc1 | 154 to 158 °C

Compound | melting point
CS(=O)c1ncc2cc(Cl)c(N)nc2n1 (stereo not given) | 260 to 262 °C
Cn1cnc(COc2nc3c(cc2-c2cccs2)nnn3-c2ccccc2F)n1 | 179 to 181 °C
COC(=O)c1ccc(OC)nc1SCc1ccccc1 | 67 to 71 °C
O=C(N[C@H]1CC[C@H](CCN2CCN(c3nccc4c3OCC4)CC2)CC1)c1ccc(Cl)cc1 | 252 °C
Cc1nc(NCCCOc2cccc(CN3CCCCC3)c2)sc1C | 123 to 125 °C
Cc1nc2cccc(F)c2c(=O)n1C1CCC(=O)NC1=O (stereo not given) | 275 to 277 °C
CCOC(=O)C1=C(N)NC2=C(C(=O)CCC2)C1c1ccccc1Br (stereo not given) | 245 °C
O=[N+]([O-])c1ccc(S(=O)(=O)CCO)cc1O | 140 to 142 °C
COc1ccc2c(c1)CCC1C2CCC2(C)C(=NN(C)C)C(C)CC12 (stereo not given) | 122 to 124 °C
CC(CC(C(C)C(C)(C)O)N(C)C)C1CCC2C(O)CCCC12C (stereo not given) | 180 to 181 °C
CN1C(=O)CCC1(O)c1ccc(Cl)c(S(=O)(=O)Cl)c1 (stereo not given) | 112 to 114 °C
CCSc1cc(C(C)C)ccc1N(CC)c1nc(C)cc(C)n1 | 128 to 130 °C
COC(=O)C(Oc1ccc(C(C)(C)C)cc1Cl)c1ccc(Oc2ccc(Cl)cc2)cc1 (stereo not given) | 85.5 to 88 °C
CCc1cc(Cl)c(OC)c(C(=O)N[C@H]2CCN(CCCC(=O)N3CCCC3)C[C@H]2OC)c1O (relative stereo) | 90.8 °C
O=C1C(=O)c2ccccc2C2=C1SCC1(CCN(C(=O)C(Cl)c3ccccc3)CC1)O2 (stereo not given) | 125 to 126 °C
O=C(COc1cc(-c2ccccc2)nc2ccccc12)N1CCOCC1 | 145 °C
O=C1C2=C(NC3(C=N2)OCCO3)c2ccccc21 | 296 to 298 °C
O=Cc1sccc1Sc1ccccc1 | 99 to 100 °C
O=C(Nc1ccc(C(=O)N2Cc3ccccc3Cc3ccccc32)cc1)c1ccc(Cl)c(Cl)c1 | 212 to 215 °C
CC1COCc2nc3cnc4cc(C=CS(C)(=O)=O)ccc4c3n21 (stereo not given) | 249 to 250 °C

Compound | melting point
OC1CSC(Oc2ccccc2-c2cccnc2)C(O)C1O (stereo not given) | 195 °C
Cc1nn(-c2ccc(C#N)c(Cl)c2)c(C)c1Oc1ccc(NC(=O)C(C)(C)C)cn1 | 191 to 192 °C
COc1cnn(C)c(=O)c1Cl | 189 to 191 °C
O=C1c2c(-c3ccccc3F)noc2CCC1CCCN1CCN(C(c2ccc(F)cc2)c2ccc(F)cc2)CC1 (stereo not given) | 95 to 97 °C
CCCCCCN(C(=O)Nc1ccc(C(=O)O)cc1)c1ccc2c(c1)C(C)(C)CCC2(C)C | 177 °C
O=c1[nH]c2c(n3ccnc13)C(NS(=O)(=O)c1ccccc1)c1ccccc1-2 (stereo not given) | 216 °C
CCOC(=O)C=Cc1cnc(C(C)(C)C)nc1 | 43 to 45 °C
CC#CCOc1ccc(S(=O)(=O)N(C)c2c(C(=O)OCC)cnc3c2c(C)nn3C)cc1 | 50 to 52 °C
CC(C)(C#N)c1cc(C(O)c2cccnc2)cc(C(C)(C)C#N)c1 (stereo not given) | 117 to 120 °C
COc1ccc2c(c1)c(Cc1cc(=O)n(-c3cccc(NC(C)=O)c3)[nH]1)c(C)n2C(=O)c1ccc(Cl)cc1 | 124 to 126 °C
CC(O)(C1=CCN(CCCC(=O)c2ccc(F)cc2)CC1)c1ccc(F)cc1 (stereo not given) | 95 °C
CC(=O)c1ccc(-c2ccc(C#N)cc2)o1 | 115 to 116 °C
OCc1ccccc1CSc1ccccc1 | 64 to 65 °C
CCOc1ccc(C(=O)NC/C=C/c2ccccc2)cc1 | 132 °C
CCOC(=O)C(=O)Nc1ccc(S(=O)(=O)NC(=O)C(=O)OCC)c(C(F)(F)F)c1 | 161 to 162 °C
COc1cc(C#N)ccc1-c1nc2cc3c(cc2[nH]1)NC(=O)C3(C)C | 304 to 312 °C
COC(=O)CCCC#Cc1cc(Cl)ccc1NS(=O)(=O)c1cccc2ccccc12 | 93 to 95 °C
CCOC(=O)COc1ccc(C(=O)c2ccccc2O)c(Cl)c1Cl | 108 to 110 °C
CN1C(=O)C(c2ccc(OC(F)F)cc2)(c2cccc(OCCC=C(F)F)c2)N=C1N (stereo not given) | 127 to 128 °C

Continued, values first:

melting point | Compound
71 to 74 °C | CC(C)CC(NC(=O)OCc1ccccc1)C(=O)NC(Cc1cccc2ccccc12)C(=O)CSCc1ccco1 (stereo not given)
154 to 155 °C | Nc1cccc(C(CC2=NCCN2)c2ccccn2)c1 (stereo not given)
193 to 194 °C | CC(C)(C)C(O)C(Oc1ccc(Cl)cc1)n1ncnc1S (stereo not given)
100 °C | COc1ccccc1-c1cc(Cl)cc2c1NC(CN)CO2 (stereo not given)
99 to 101 °C | COc1cccc(C2=C(c3cn4c5c(cccc35)CCC4)C(=O)NC2=O)c1
189 to 192 °C | Cc1ccc2c(c1F)N(C1CC1)C=NS2(=O)=O
42 to 43 °C | COc1ccc(-n2cccc2)c(N)c1
91 to 91.5 °C | NC(CCNc1ccccc1)=NO
49.5 to 50.5 °C | COc1cccc2c1CC1OC1C2 (stereo not given)
96 to 99 °C | CC(C)(C)C(=O)CN1C(=O)c2ccccc2C1=O
251 °C | Cc1[nH]n(C2CCOC2)c2nc(-c3ccncc3)nc(=O)c1-2 (stereo not given)
237 to 240 °C | COC(=O)[C@@H]1CSCc2c(O[Si](C)(C)C(C)(C)C)cc(OC)c(C)c2C(=O)OC[C@H](O)C(=O)N1
160 to 162 °C | CS(=O)(=O)NC(=O)c1cccc(-c2ccc(Cl)c(C(=O)NCC34CC5CC(CC(C5)C3)C4)c2)n1
303 to 305 °C | CCOC(=O)C1=C(C)Nc2nc[nH]c(=O)c2C1c1ccccc1 (stereo not given)
115 to 116 °C | COc1ccc2c(c1)CCC1C2CCC2(C)C(=O)C(C)CC12 (stereo not given)
139 to 141 °C | COc1ccc(C2=NN(CC(=O)Nc3ccc(C4=NNC(=O)CC4C)cc3)C(=O)C3CC=CCC23)cc1OC (stereo not given)
207 to 208 °C | Cc1coc(C)c1N(C)c1cc(Br)cc2c1nc(C)n2C
109 to 110 °C | Fc1ccc(CN2CCN(C3CC=C(c4ccc(F)cc4)CC3)CC2)cc1 (stereo not given)
167 °C | COc1cccc(CCN2C(=O)c3ccccc3C2(O)c2ccc(C(F)(F)F)cc2)c1 (stereo not given)
122 °C | C#CCN1CCCc2cccc(CSc3nc4ccccc4[nH]3)c21
41 to 44 °C | COC/C=C\c1cccc(C2(c3ccc(OC(F)F)cc3)N=C(N)N(C)C2=O)c1 (stereo not given)

melting point | Compound
152 °C | Cn1nnc2cccc(C(O)c3cccc(F)c3)c21 (stereo not given)
105 to 107 °C | CC(C(=O)O)c1ccc(Oc2ccc(Cl)cc2)cc1 (stereo not given)
127 to 129 °C | Cn1nc(-c2ccc(F)cc2)c(-c2ccncc2)c1NC(=O)Cc1ccc(O)cc1
67 °C | O=C(CCCl)n1ccc2ccccc21
234 to 236 °C | O=c1[nH]c2cc([N+](=O)[O-])cnc2n1-c1ccccc1F
116 °C | O=S(=O)(c1ccc(F)cc1)N1CCCC1c1ccc(F)c(Cl)c1 (racemic)
> 300 °C | COc1c(-c2ccc3cc(NS(C)(=O)=O)ccc3c2)cc(-n2ccc(=O)[nH]c2=O)cc1C(C)(C)C(=O)O
85 to 87 °C | Cc1ccccc1OC(=O)N1CCCC1=O
140 °C | COC(=O)/C(=N/O)c1cccc([N+](=O)[O-])c1
163 to 164 °C | CNC(=O)c1sc2cnccc2c1Oc1ccc(COC)cc1
65 to 67 °C | COc1cc(OC)nc(CC#N)n1
162 to 164 °C | COc1cc(CC(=O)O)ccc1OCc1nc(-c2ccco2)oc1C
128 to 130 °C | CCc1cc2c(ccc(=O)n2Cc2ccc(C(=O)OC)cc2)c(CC)n1
178 to 190 °C | Cc1nc(N2N=C(c3ccc([N+](=O)[O-])cc3)c3cc4c(cc3CC2C)OCO4)cs1 (stereo not given)
291 to 293 °C | CC1CC(=O)NN=C1c1ccc2c(c1)C1(CC1)C(=O)N2 (stereo not given)
144 °C | CCOC(=O)C(=CC=C(SC)C(=O)c1ccc(O)c(O)c1)N(C)C
128 °C | Cc1cc(N)c([N+](=O)[O-])cc1OS(C)(=O)=O
220 to 221 °C | CC(=O)Nc1nc(CCc2ccc(NC(NC(=O)OC(C)(C)C)NC(=O)OC(C)(C)C)cc2)c(Cl)s1
258 °C | CC12CCC(C(=O)O)=CC1=CCC1C2CCC2(C)C(C(=O)Cc3ccccc3)CCC12 (stereo not given)
235 °C | O=C(CN1C(=O)c2ccccc2C1=O)Nc1cccc(C(F)(F)F)c1
